Source: patent publication US8119683B2, “Aryl substituted sulfonamide compounds and their use as anticancer agents” (Taipei Medical University, priority 2009, dated 2012)
Where two headings read alike, the source gives them in different places.

Legend:
[1] = system: Human oral epidermoid carcinoma KB cells; assay: Cell growth inhibition assay (methylene blue dye), KB cells; format: cell-based; conditions: KB cells
Experimental: Anticancer activities of the aryl substituted sulfonamide compounds synthesized in the above examples were evaluated by testing their inhibitory effects on mammalian cancer cell growth.
Human oral epidermoid carcinoma KB cells, non small cell lung carcinoma H460 cells, colorectal carcinoma HT29 cells, and stomach carcinoma MKN45 cells were maintained in RPMI-1640 medium supplied with 5% fetal bovine serum. The cells were treated with the test compound at various concentrations for 72 h.

[2] = bands, read-out: IC50, inhibiting proliferation of KB cells (band)

SMILES | melting point | IC50 [1, 2] | IC50 ([1]; bound stated, read-out: IC50, inhibiting proliferation of KB cells (bound))
COc1ccc(S(=O)(=O)n2ccc3ccnc(Nc4ccc(F)cc4)c32)cc1 [Compound 5, (4-fluoro-phenyl)-[1-(4-methoxy-benzenesulfonyl)-1H-pyrrolo[2,3-c]pyridin-7-yl]-amine] | 125.1 to 127.1 °C | – | –
COc1ccc(S(=O)(=O)n2ccc3ccnc(-c4ccco4)c32)cc1 [Compound 16, 7-furan-2-yl-1-(4-methoxy-benzenesulfonyl)-1H-pyrrolo[2,3-c]pyridine] | 127.1 to 130.3 °C | – | –
COc1ccc(S(=O)(=O)n2ccc3ccnc(-c4ccc(C(F)(F)F)cc4)c32)cc1 [Compound 15, 1-(4-methoxy-benzenesulfonyl)-7-(4-trifluoromethyl-phenyl)-1H-pyrrolo[2,3-c]pyridine] | 143.1 to 144.9 °C | – | –
COc1ccc(S(=O)(=O)n2ccc3ccnc(-c4ccccc4)c32)cc1 [Compound 6, 1-(4-methoxy-benzenesulfonyl)-7-phenyl-1H-pyrrolo[2,3-c]pyridine] | 148.9 to 151 °C | – | –
COc1ccc(S(=O)(=O)N2CCc3cccc(-c4ccc(N)cc4)c32)cc1 [Compound 20, 4-[1-(4-methoxy-benzenesulfonyl)-2,3-dihydro-1H-indol-7-yl]-phenylamine] | 183.9 to 185.6 °C | 100 to 700 nM | –
COc1ccc(S(=O)(=O)n2ccc3ccnc(-c4ccc(Cl)cc4)c32)cc1 [Compound 9, 7-(4-chloro-phenyl)-1-(4-methoxy-benzenesulfonyl)-1H-pyrrolo[2,3-c]pyridine] | 125.5 to 128.5 °C | – | –
COc1ccc(S(=O)(=O)n2ccc3cccc(-c4ccc(F)cc4)c32)cc1 [Compound 19, 7-(4-fluoro-phenyl)-1-(4-methoxy-benzenesulfonyl)-1H-indole] | 181.2 to 182.4 °C | – | –
COc1ccc(S(=O)(=O)n2ccc3ccnc(-c4ccc(F)cc4)c32)cc1 [Compound 8, 7-(4-fluoro-phenyl)-1-(4-methoxy-benzenesulfonyl)-1H-pyrrolo[2,3-c]pyridine] | 136 to 137 °C | – | –
COc1ccc(Nc2nccc3ccn(S(=O)(=O)c4ccc(OC)cc4)c23)cc1 [Compound 4, [1-(4-methoxy-benzenesulfonyl)-1H-pyrrolo[2,3-c]pyridin-7-yl]-(4-methoxy-phenyl)-amine] | 155.5 to 158.3 °C | – | –
COc1ccc(S(=O)(=O)n2ccc3ccnc(-c4ccc(N(C)C)cc4)c32)cc1 [Compound 12, {4-[1-(4-methoxy-benzenesulfonyl)-1H-pyrrolo[2,3-c]pyridin-7-yl]-phenyl}-dimethyl-amine] | 111.5 to 114.5 °C | – | –
COc1ccc(-c2nccc3ccn(S(=O)(=O)c4ccc(OC)cc4)c23)cc1 [Compound 11, 1-(4-methoxy-benzenesulfonyl)-7-(4-methoxy-phenyl)-1H-pyrrolo[2,3-c]pyridine] | 162.8 to 164.8 °C | – | –
COc1ccc(S(=O)(=O)N2CCc3cccc(-c4ccco4)c32)cc1 [Compound 29, 7-furan-2-yl-1-(4-methoxy-benzenesulfonyl)-2,3-dihydro-1H-indole] | 176.7 to 177.7 °C | 1 to 99 nM | –
COc1ccc(S(=O)(=O)n2ccc3ccnc(N(C)C)c32)cc1 [Compound 3, [1-(4-methoxy-benzenesulfonyl)-1H-pyrrolo[2,3-c]pyridin-7-yl]-dimethyl-amine] | 154.8 to 157.5 °C | – | –
COC(=O)c1ccc(-c2nccc3ccn(S(=O)(=O)c4ccc(OC)cc4)c23)cc1 [Compound 7, 4-[1-(4-methoxy-benzenesulfonyl)-1H-pyrrolo[2,3-c]pyridin-7-yl]-benzoic acid methyl ester] | 143.5 to 146.5 °C | – | –
COc1ccc(S(=O)(=O)N2CCc3cccc(-c4ccc(O)cc4)c32)cc1 [Compound 26, 4-[1-(4-methoxy-benzenesulfonyl)-2,3-dihydro-1H-indol-7-yl]-phenol] | 179.4 to 180.5 °C | 100 to 700 nM | –
COc1ccc(S(=O)(=O)N2CCc3cccc(-c4ccc(N(C)C)cc4)c32)cc1 [Compound 31, {4-[1-(4-methoxy-benzenesulfonyl)-2,3-dihydro-1H-indol-7-yl]-phenyl}-dimethyl-amine] | 178.4 to 179.7 °C | 100 to 700 nM | –
COc1ccc(S(=O)(=O)N2CCc3cccc(-c4ccc(F)c(F)c4)c32)cc1 [Compound 21, 7-(3,4-difluoro-phenyl)-1-(4-methoxy-benzenesulfonyl)-2,3-dihydro-1H-indole] | 180.2 to 181.4 °C | 1 to 99 nM | –
COc1ccc(S(=O)(=O)n2ccc3ccnc(-c4ccc([N+](=O)[O-])cc4)c32)cc1 [Compound 14, 1-(4-methoxy-benzenesulfonyl)-7-(4-nitro-phenyl)-1H-pyrrolo[2,3-c]pyridine] | 177.5 to 178.8 °C | – | –
COc1ccc(S(=O)(=O)n2ccc3ccnc(Nc4ccccc4)c32)cc1 [Compound 1, [1-(4-methoxy-benzenesulfonyl)-1H-pyrrolo[2,3-c]pyridin-7-yl]-phenyl-amine] | 138.5 to 139.7 °C | – | –
COc1ccc(-c2cccc3c2N(S(=O)(=O)c2ccc(OC)cc2)CC3)cc1 [Compound 23, 1-(4-methoxy-benzenesulfonyl)-7-(4-methoxy-phenyl)-2,3-dihydro-1H-indole] | 176.3 to 177.4 °C | 100 to 700 nM | –
COc1ccc(S(=O)(=O)N2CCc3cccc(-c4cccs4)c32)cc1 [Compound 30, 1-(4-methoxy-benzenesulfonyl)-7-thiophen-2-yl-2,3-dihydro-1H-indole] | 127.7 to 129.1 °C | 100 to 700 nM | –
COc1ccc(S(=O)(=O)n2ccc3ccnc(-c4ccc(O)cc4)c32)cc1 [Compound 10, 4-[1-(4-methoxy-benzenesulfonyl)-1H-pyrrolo[2,3-c]pyridin-7-yl]-phenol] | 179 to 182 °C | – | –
COc1ccc(S(=O)(=O)n2ccc3ccnc(-c4ccncc4)c32)cc1 [Compound 13, 1-(4-methoxy-benzenesulfonyl)-7-pyridin-4-yl-1H-pyrrolo[2,3-c]pyridine] | 193.1 to 194.3 °C | – | –
COc1ccc(S(=O)(=O)n2ccc3cccc(-c4ccc(C#N)cc4)c32)cc1 [Compound 18, 4-[1-(4-methoxy-benzenesulfonyl)-1H-indol-7-yl]-benzonitrile] | 164.3 to 165.7 °C | – | –

The remaining lines, values ahead:

melting point | IC50 [1, 2] | IC50 ([1]; bound stated, read-out: IC50, inhibiting proliferation of KB cells (bound)) | SMILES
152 to 153 °C | 1 to 99 nM | – | COc1ccc(S(=O)(=O)N2CCc3cccc(-c4ccc(C=O)cc4)c32)cc1 [Compound 38, 4-[1-(4-methoxy-benzenesulfonyl)-2,3-dihydro-1H-indol-7-yl]-benzaldehyde]
202.5 to 204.8 °C | – | – | COc1ccc(S(=O)(=O)N2CCc3cccc(-c4cc(OC)c(OC)c(OC)c4)c32)cc1 [Compound 32, 1-(4-methoxy-benzenesulfonyl)-7-(3,4,5-trimethoxy-phenyl)-2,3-dihydro-1H-indole]
195.1 to 197 °C | 1 to 99 nM | – | COc1ccc(S(=O)(=O)N2CCc3cccc(-c4ccccn4)c32)cc1 [Compound 36, 1-(4-methoxy-benzenesulfonyl)-7-pyridin-2-yl-2,3-dihydro-1H-indole]
165 to 166 °C | – | ≥ 4000 nM | COc1ccc(S(=O)(=O)N2CCc3cccc(-c4ccc(CN(C)C)cc4)c32)cc1 [Compound 39, {4-[1-(4-methoxy-benzenesulfonyl)-2,3-dihydro-1H-indol-7-yl]-benzyl}-dimethyl-amine]
180 to 181.3 °C | – | – | COc1ccc(S(=O)(=O)N2CCc3cccc(-c4cccc(F)c4)c32)cc1 [Compound 35, 7-(3-fluoro-phenyl)-1-(4-methoxy-benzenesulfonyl)-2,3-dihydro-1H-indole]
112.2 to 113.7 °C | – | – | COc1ccc(S(=O)(=O)n2ccc3ccnc(-c4cccs4)c32)cc1 [Compound 44, 1-(4-methoxy-benzenesulfonyl)-7-thiophen-2-yl-1H-pyrrolo[2,3-c]pyridine]
177.1 to 178.3 °C | 100 to 700 nM | – | COc1ccc(S(=O)(=O)N2CCc3cccc(-c4ccc(Cl)cc4)c32)cc1 [Compound 33, 7-(4-chloro-phenyl)-1-(4-methoxy-benzenesulfonyl)-2,3-dihydro-1H-indole]
241.7 to 242.9 °C | – | – | NS(=O)(=O)c1ccc(S(=O)(=O)N2CCc3cccc(-c4ccncc4)c32)cc1 [Compound 43, 4-(7-pyridin-4-yl-2,3-dihydro-indole-1-sulfonyl)-benzenesulfonamide]
177.1 to 178.4 °C | 1 to 99 nM | – | COc1ccc(S(=O)(=O)N2CCc3cccc(-c4ccc([N+](=O)[O-])cc4)c32)cc1 [Compound 37, 1-(4-methoxy-benzenesulfonyl)-7-(4-nitro-phenyl)-2,3-dihydro-1H-indole]
179.7 to 181 °C | 100 to 700 nM | – | COc1ccc(S(=O)(=O)N2CCc3cccc(-c4ccc(C(F)(F)F)cc4)c32)cc1 [Compound 34, 1-(4-methoxy-benzenesulfonyl)-7-(4-trifluoromethyl-phenyl)-2,3-dihydro-1H-indole]
130.3 to 132.1 °C | 100 to 700 nM | – | COc1ccc(S(=O)(=O)N2CCc3cccc(-c4ccc(C(=O)O)cc4)c32)cc1 [Compound 40, 4-[1-(4-methoxy-benzenesulfonyl)-2,3-dihydro-1H-indol-7-yl]-benzoic acid]
188.7 to 190.2 °C | – | – | NS(=O)(=O)c1ccc(S(=O)(=O)N2CCc3cccc(-c4ccc(F)cc4)c32)cc1 [Compound 42, 4-[7-(4-fluoro-phenyl)-2,3-dihydro-indole-1-sulfonyl]-benzenesulfonamide]
200 to 201 °C | – | – | COc1ccc(S(=O)(=O)N2CCc3cccc(-c4ccc(C=CC(=O)NO)cc4)c32)cc1 [Compound 41, N-hydroxy-3-{4-[1-(4-methoxy-benzenesulfonyl)-2,3-dihydro-1H-indol-7-yl]-phenyl}-acrylamide]
178.8 to 181 °C | – | – | COc1ccc(S(=O)(=O)N2CCc3cccc(-c4cccnc4)c32)cc1 [Compound 46, 1-(4-methoxy-benzenesulfonyl)-7-pyridin-3-yl-2,3-dihydro-1H-indole]
